Tests used:
[1] = test system: IL-10 production by zymosan-stimulated BMDCs; experiment: IL-10 up-regulation in zymosan-stimulated BMDCs (AlphaLISA/ELISA); assay type: cell-based, mouse; settings: for effect on IL-10 production by BMDCs (in words): kinase inhibitor screen / PGE2 control; for EC50: Mus musculus, BMDC, read-out: IL-10 induction EC50
Description: (§1) Bone marrow-derived DCs were differentiated from C57BL/6 bone marrow in the presence of GM-CSF-conditioned media. CD11c^+ CX3CR1^hi myeloid cells and CD11c^+ CX3CR1^− DCs were isolated from the small intestine lamina propria of Cx3cr1^eGFP/+ mice (12). Detection of cell-surface Thy1.1 expression on BMDCs from 10BiT reporter mice was conducted as described previously (24). Cell viability was estimated by change in total cellular ATP levels using CellTiterGlo assays (Promega). Preparation of recombinant SIK proteins and IC50 measurements were conducted as described previously (21). Total RNA was extracted using a NucleoSpin 96 RNA isolation kit (Macherey-Nagel) followed by cDNA synthesis and multiplex RT-PCR using a microfluidic dynamic array (Fluidigm). The concentrations of TNF-α, IL-6, IL-10, IL-12p40, IL-1β and RANTES in culture supernatants were detected using a FlexSet Cytometric bead array (BD Biosciences). Alternatively, IL-10 secretion was quantified using ELISA (BD Biosciences) or AlphaLISA (PerkinElmer) assays. NO production was estimated based on nitrate content in culture medium using the Greiss reagent.
(§2) C57BL/6 mice were euthanized and bone marrow harvested from femurs and tibias as described previously (Graham D B, et al. (2007) An ITAM-signaling pathway controls cross-presentation of particulate but not soluble antigens in dendritic cells. The Journal of experimental medicine 204(12):2889-2897). BMDCs were differentiated DMEM supplemented with 2 mM GlutaMAX, 10% (vol/vol) FBS, penicillin, streptomycin and 2% mouse GM-CSF conditioned media derived from TOPO cells. Cultures were differentiated for 7 days and routinely analyzed for >90% CD11c (APC anti-CD11c clone HL3; BD Biosciences) positivity by flow cytometry before use in experiments. Lentiviral transduction of bone marrow cultures was conducted by addition of 293T culture supernatants containing lentiviral particles encoding the CREB dependent luciferase reporter construct or CRTC3 targeting or control shRNAs one day post-isolation. Stable integration of lentiviral shRNA constructs was selected by addition of puromycin (3 μg/mL) on day 4 post-transduction. After 2 days, stably transduced BMDCs were released from selection and used in subsequent assays. Unless otherwise indicated, cells were treated for 2 days with PGE2 (5 μM) or HG-9-91-01 (0.5 μM) or an equivalent concentration of DMSO (≤0.5%) and then stimulated for 18 hr with LPS (100 ng/mL), R848 (10 μg/mL) or zymosan (4 μg/mL).
BMDCs were seeded into black 384-well plates (Corning) at 20,000 cells/well in 40 μL complete DMEM using a Multidrop COMBI (Thermal Scientific) followed by incubation at 37° C. for 2 hr to allow for plate adherence. SIK inhibitors (100 nL/well) were pin-transferred from concentrated DMSO stocks using CyBi-Well Vario (CyBio) into duplicate plates. For each treatment plate, 32 out of 384 wells were pinned with DMSO as negative control and 32 out of 384 wells were pinned with PGE2 (5 μM final concentration). Two days after SIK inhibitor treatment, BMDCs were stimulated with zymosan (4 μg/mL final concentration) dispersed in culture medium (20 μL/well) using a Multidrop COMBI. After 18 hr, 5 μL of resulting supernatant was transferred from the culture plate to white 384-well AlphaLISA plates (Perkin Elmer) using a CyBi-Well Vario. IL-10 abundance in the supernatants was determined using an AlphaLISA assay (PerkinElmer) according to the manufacture's protocol and signal intensity measured using an EnVision multimode plate reader. SIK inhibitor activity was expressed as a % of the differences between the mean abundance of IL-10 in PGE2 versus DMSO wells on a per plate basis. Cell viability assays were conducted on the same tissue culture plates as the IL-10 assay. First media was removed and replaced by solution of 50% (vol/vol) CellTiter-Glo (Promega) in PBS. […]

BMDCs [2] = experiment: Cell viability of BMDCs (CellTiter-Glo, cellular ATP); assay type: cell-based, mouse; settings: for EC50: Mus musculus, BMDC, zymosan-stimulated BMDCs, read-out: Viability loss EC50
Description: as §1
BMDCs were seeded into black 384-well plates (Corning) at 20,000 cells/well in 40 μL complete DMEM using a Multidrop COMBI (Thermal Scientific) followed by incubation at 37° C. for 2 hr to allow for plate adherence. SIK inhibitors (100 nL/well) were pin-transferred from concentrated DMSO stocks using CyBi-Well Vario (CyBio) into duplicate plates. For each treatment plate, 32 out of 384 wells were pinned with DMSO as negative control and 32 out of 384 wells were pinned with PGE2 (5 μM final concentration). Two days after SIK inhibitor treatment, BMDCs were stimulated with zymosan (4 μg/mL final concentration) dispersed in culture medium (20 μL/well) using a Multidrop COMBI. After 18 hr, 5 μL of resulting supernatant was transferred from the culture plate to white 384-well AlphaLISA plates (Perkin Elmer) using a CyBi-Well Vario. IL-10 abundance in the supernatants was determined using an AlphaLISA assay (PerkinElmer) according to the manufacture's protocol and signal intensity measured using an EnVision multimode plate reader. SIK inhibitor activity was expressed as a % of the differences between the mean abundance of IL-10 in PGE2 versus DMSO wells on a per plate basis. Cell viability assays were conducted on the same tissue culture plates as the IL-10 assay. First media was removed and replaced by solution of 50% (vol/vol) CellTiter-Glo (Promega) in PBS. Luminescence was read using an Envision multimode plate reader, and signal intensity calculated relative to DMSO control wells on a per plate basis.

SIK2 = molecular target: T1, SIK2 (Homo sapiens, UniProt Q9H0K1); experiment: Protein kinase assay ([γ-32P] ATP, phosphocellulose paper) against SIK2; assay type: biochemical; settings: for IC50: read-out: Enzyme Inhibition IC50 SIK2
T1 construct: made in house
Description: as §1
(§3) In another set of experiments, the activities of the SIK inhibitors described herein against SIK were determined according to the methods reported in Hastie et al., Nature Protocols, 2006, 1, 968-971.
(§4) This buffer consisted of 50 mM Tris-HCl, pH 7.5, 0.1 mM EGTA, 1 mg ml^−1 bovine serum albumin and 0.1% (vol/vol) 2-mercaptoethanol.
(§5) An assay buffer of 500 mM Tris-HCl, pH 7.5, 1 mM EGTA, and 100 mM magnesium acetate was used for the protein kinase assay.
(§6) The specific activity of the [γ-^32P] ATP solution was 1×10^5 to 1×10^6 c.p.m. per nmol depending on what was needed to produce an optimal signal/noise ratio. Stocks of nonradioactive (“cold”) ATP were dissolved in 10 mM HEPES, and the pH of the resulting stock solutions was adjusted to 7.4. To measure the concentration of ATP, a sample of such a stock solution was diluted to 20 μM, and the absorbance of the diluted sample was measured at 259 nm. The absorbance of a 20-μM stock solution of ATP at 259 nm was about 0.31. The 1-mM solution of cold ATP was “spiked” with [γ-^32P] ATP to produce a radioactivity of 1×10^5 to 1×10^6 c.p.m. per nmol.
(§7) 1) The number of assay samples needed was determined based on, e.g., the following considerations: (i) each condition was assayed in duplicate; (ii) two controls containing peptide or protein substrate and ATP but no SIK were included to assess contamination by any free ATP not incorporated into substrate, alongside two controls lacking a peptide or protein substrate but containing ATP and SIK to correct for any incorporation of phosphate into the kinase itself (e.g., autophosphorylation); and (iii) a maximum of 40 samples were assayed manually at one time by a single person. Microcentrifuge tubes were label distinctly and were placed on ice.
(§8) 4) Dilute the SIK in enzyme dilution buffer and place on ice.
(§9) 5) Pipette 5 j±l of 10× concentrated assay buffer, 5 j±l peptide or protein substrate (the two “no-substrate” control tubes had 5 j±l water added instead of peptide or protein substrate), and 30 μl distilled water into each tube. Keep the tubes on ice.
(§10) 6) Add 5 μl diluted SIK to each tube, except for the two “no-enzyme” control tubes, which had 5 μl enzyme dilution buffer added, and still keeping the tubes on ice. In some cases, premixed “cocktails” of assay components were prepared containing peptide or protein substrate, assay buffer, and distilled water to limit the number of additions to each assay tube. Each of steps 7 to 14 was done behind a plexiglass shield.
(§11) 7) Insert each tube into the water bath at intervals of 15 s to allow the assay mixture to reach 30° C. Begin the SIK reactions by adding 5 μl of 1 mM [γ-^32P] ATP to each tube at intervals of 15 s. Close each tube, vortex for 1 s to mix the contents and immediately replace in a rack in the water bath. Incubate for 10 min at 30° C. […]

SIK3 = molecular target: T2, SIK3 (Homo sapiens, UniProt Q9Y2K2); experiment: Protein kinase assay ([γ-32P] ATP, phosphocellulose paper) against SIK3; assay type: biochemical; settings: read-out: Enzyme Inhibition IC50 SIK3
T2 construct: made in house
Description: as §1, §3, §4, §5, §6, §7, §8, §9, §10, §11

BMDCs [3] = experiment: Multiplex qPCR of transcripts in stimulated BMDCs; assay type: cell-based, mouse; settings: 2 days pre-treatment, 4 hr LPS, R848 or zymosan
Description: as §1
as §2, with “Unless otherwise indicated, cells were treated for 2 days with PGE2 (5 μM) or HG-9-91-01 (0.5 μM) or an equivalent concentration of DMSO (≤0.5%) and then stimulated for 18 hr with LPS (100 ng/mL), R848 (10 μg/mL) or zymosan (4 μg/mL).” left out
Total RNA was extracted using a NucleoSpin 96 RNA isolation kit (Macherey-Nagel). […] Relative gene expression was calculated from Ct values and normalized against ACTB mRNA levels as described previously (Pfaffl MW (2001) A new mathematical model for relative quantification in real-time RT-PCR. Nucleic acids research 29(9):e45). […]

BMDCs [4] = experiment: Cytokine (cytometric bead array) and NO (Greiss) production by stimulated BMDCs; assay type: cell-based, mouse
Description: as §1, §2
After stimulation of cells with microbial ligands, the culture medium was removed, clarified by centrifugation for 10 min at 14,000×g, and the concentration of TNF-α, IL-6, IL-10, IL-12p40, IL-1β and RANTES were measured using FlexSet Cytokine Bead Array (BD Biosciences) according to the manufacturer's instructions. Where indicated, ELISAs were used to detect IL-10 and IL-12p70 (BD Biosciences) according to the manufacturer's instructions. NO production was estimated based on nitrate content in culture medium using the Greiss reagent as described previously (Miletic A V, et al. (2007) Vav proteins control MyD88-dependent oxidative burst. Blood 109(8):3360-3368).

SIK1 = molecular target: T3, SIK1 (Homo sapiens, UniProt P57059); experiment: Protein kinase assay ([γ-32P] ATP, phosphocellulose paper) against SIK1; assay type: biochemical; settings: 1 μM; DMSO set to 100%; read-out: Activity of protein kinase treated with 1 μM of I-1 (% control (DMSO)) SIK1
T3 construct: made in house
Description: as §1, with “Total RNA was extracted using a NucleoSpin 96 RNA isolation kit (Macherey-Nagel) followed by cDNA synthesis and multiplex RT-PCR using a microfluidic dynamic array (Fluidigm).” left out, “NO production was estimated based on nitrate content in culture medium using the Greiss reagent.” left out
In another set of experiments, the activities of the SIK inhibitors described herein against SIK were determined according to the methods reported in Hastie et al., Nature Protocols, 2006, 1, 968-971. […]
The specific activity of the [γ-^32P] […] To measure the concentration of ATP, a sample of such a stock solution was diluted to 20 μM, and the absorbance of the diluted sample was measured at 259 nm. The absorbance of a 20-μM stock solution of ATP at 259 nm was about 0.31. […] ATP to produce a radioactivity of 1×10^5 to 1×10^6 c.p.m. per nmol. […]

T1 sequence (Q9H0K1 whole entry): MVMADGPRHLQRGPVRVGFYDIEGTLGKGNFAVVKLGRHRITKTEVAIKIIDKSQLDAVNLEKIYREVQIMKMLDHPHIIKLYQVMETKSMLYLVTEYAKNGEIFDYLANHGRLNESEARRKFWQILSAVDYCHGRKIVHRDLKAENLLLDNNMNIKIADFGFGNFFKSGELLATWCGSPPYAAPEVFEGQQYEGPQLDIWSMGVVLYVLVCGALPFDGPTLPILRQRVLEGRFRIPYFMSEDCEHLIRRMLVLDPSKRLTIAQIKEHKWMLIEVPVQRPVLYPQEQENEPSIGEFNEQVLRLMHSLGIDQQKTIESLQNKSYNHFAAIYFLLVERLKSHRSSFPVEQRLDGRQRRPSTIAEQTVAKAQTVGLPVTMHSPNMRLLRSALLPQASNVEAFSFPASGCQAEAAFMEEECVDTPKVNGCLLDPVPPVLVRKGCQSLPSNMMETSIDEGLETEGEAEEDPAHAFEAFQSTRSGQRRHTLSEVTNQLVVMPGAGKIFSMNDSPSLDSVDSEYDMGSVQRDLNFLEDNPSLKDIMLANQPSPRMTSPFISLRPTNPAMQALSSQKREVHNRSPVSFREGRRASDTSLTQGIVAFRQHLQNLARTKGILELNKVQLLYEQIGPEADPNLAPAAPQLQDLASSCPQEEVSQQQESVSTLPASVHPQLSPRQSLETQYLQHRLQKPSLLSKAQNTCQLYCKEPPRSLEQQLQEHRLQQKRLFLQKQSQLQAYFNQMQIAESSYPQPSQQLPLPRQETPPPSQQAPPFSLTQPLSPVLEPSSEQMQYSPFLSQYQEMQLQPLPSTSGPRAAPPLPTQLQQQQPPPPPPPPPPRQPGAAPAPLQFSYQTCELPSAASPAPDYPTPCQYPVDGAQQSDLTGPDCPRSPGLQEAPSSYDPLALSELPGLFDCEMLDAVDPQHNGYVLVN
T2 sequence (Q9Y2K2 whole entry): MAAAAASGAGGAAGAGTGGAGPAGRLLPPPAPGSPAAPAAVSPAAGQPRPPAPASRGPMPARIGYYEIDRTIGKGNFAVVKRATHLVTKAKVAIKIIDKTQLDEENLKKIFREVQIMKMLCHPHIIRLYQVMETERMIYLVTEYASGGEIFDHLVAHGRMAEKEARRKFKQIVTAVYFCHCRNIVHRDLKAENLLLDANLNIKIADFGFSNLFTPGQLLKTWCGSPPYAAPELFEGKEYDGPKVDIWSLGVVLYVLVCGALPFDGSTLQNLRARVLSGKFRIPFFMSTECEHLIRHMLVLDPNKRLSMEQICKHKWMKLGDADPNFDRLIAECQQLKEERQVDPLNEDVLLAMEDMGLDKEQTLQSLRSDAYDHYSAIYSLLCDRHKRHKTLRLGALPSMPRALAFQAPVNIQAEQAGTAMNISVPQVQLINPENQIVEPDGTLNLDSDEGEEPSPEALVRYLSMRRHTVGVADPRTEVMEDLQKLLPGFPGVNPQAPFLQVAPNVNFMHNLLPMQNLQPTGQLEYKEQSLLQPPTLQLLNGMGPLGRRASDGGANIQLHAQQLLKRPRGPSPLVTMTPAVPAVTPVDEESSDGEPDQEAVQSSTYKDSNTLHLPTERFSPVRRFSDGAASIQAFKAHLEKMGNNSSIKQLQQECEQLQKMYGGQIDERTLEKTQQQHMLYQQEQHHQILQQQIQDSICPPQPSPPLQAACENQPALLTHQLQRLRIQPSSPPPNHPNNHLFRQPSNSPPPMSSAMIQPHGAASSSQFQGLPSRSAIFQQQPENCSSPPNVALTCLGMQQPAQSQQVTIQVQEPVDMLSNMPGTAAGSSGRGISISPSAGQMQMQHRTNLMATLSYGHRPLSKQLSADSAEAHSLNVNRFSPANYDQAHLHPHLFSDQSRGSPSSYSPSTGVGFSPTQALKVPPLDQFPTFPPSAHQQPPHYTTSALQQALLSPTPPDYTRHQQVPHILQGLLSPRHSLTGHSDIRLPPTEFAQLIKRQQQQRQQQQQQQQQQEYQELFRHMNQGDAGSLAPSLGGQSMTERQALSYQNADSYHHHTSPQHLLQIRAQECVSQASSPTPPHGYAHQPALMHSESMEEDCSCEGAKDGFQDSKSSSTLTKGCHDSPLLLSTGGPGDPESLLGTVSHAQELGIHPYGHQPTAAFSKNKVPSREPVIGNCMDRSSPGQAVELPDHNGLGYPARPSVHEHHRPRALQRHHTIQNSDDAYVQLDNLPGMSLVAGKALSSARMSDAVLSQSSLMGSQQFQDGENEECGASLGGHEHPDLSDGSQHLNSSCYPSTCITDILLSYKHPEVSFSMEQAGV
T3 sequence (P57059 whole entry): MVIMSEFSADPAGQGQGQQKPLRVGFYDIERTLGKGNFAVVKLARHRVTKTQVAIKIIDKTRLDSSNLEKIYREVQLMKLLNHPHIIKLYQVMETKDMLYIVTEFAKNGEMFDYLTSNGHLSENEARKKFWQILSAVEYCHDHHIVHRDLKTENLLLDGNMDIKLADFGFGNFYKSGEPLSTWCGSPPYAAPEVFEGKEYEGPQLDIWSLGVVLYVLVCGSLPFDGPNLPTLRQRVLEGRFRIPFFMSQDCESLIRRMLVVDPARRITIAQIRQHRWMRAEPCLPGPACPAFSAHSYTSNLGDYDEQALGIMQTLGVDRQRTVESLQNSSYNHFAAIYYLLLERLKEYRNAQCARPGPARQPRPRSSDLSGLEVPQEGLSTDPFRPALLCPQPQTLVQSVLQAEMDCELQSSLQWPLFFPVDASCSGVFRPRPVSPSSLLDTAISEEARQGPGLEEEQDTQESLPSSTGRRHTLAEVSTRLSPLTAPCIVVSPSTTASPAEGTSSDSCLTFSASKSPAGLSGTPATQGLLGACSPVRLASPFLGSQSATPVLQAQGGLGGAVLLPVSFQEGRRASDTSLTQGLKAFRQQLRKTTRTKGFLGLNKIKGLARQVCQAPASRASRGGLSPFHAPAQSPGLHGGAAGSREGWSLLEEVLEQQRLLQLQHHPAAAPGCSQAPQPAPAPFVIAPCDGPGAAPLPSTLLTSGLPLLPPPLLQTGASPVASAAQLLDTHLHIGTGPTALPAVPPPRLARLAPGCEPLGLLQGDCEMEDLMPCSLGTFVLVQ

Compound	viability of BMDCs (in words) (BMDCs [2])	IC50 (SIK2) [µM]	IC50 (SIK3) [µM]	EC50 (BMDCs [2]) [µM]	further results
Cc1ccc(NC(=O)c2ccc(CN3CCN(C)CC3)cc2)cc1Nc1nccc(-c2cccnc2)n1 [imatinib, reference compound]	non-toxic	–	–	–	effect on IL-10 production by BMDCs (in words) [1]: did not up-regulate IL-10 production
Cc1cccc(C)c1OC(=O)N1C/C=C\COCc2cc(ccc2OCCN2CCC(O)CC2)Nc2nccc1n2 [I-5]	–	0.012	0.0737	6.12	EC50 ([1]; zymosan-stimulated BMDCs): 23.8 µM
Cc1cccc(C)c1OC(=O)N1C/C=C/COCc2cc(ccc2OCCN2CCC(O)CC2)Nc2nccc1n2 [I-4]	–	0.0938	0.409	5	EC50 ([1]; zymosan-stimulated BMDCs): 10.5 µM
COc1cc(Nc2c(C#N)cnc3cc(OCCCN4CCN(C)CC4)c(OC)cc23)c(Cl)cc1Cl [bosutinib, reference compound]	reduced viability	–	–	–	–
CCCCC[C@H](O)/C=C/[C@H]1[C@H](O)CC(=O)[C@@H]1C/C=C\CCCC(=O)O [PGE2, prostaglandin E2, reference compound]	–	–	–	–	effect on IL-10 production by BMDCs (in words) [1]: increased levels of IL-10; IL-10 mRNA levels (BMDCs [3]): robustly enhanced; abundance of Arg1 and Nos2 transcripts (BMDCs [3]): highly induced; IL-10 secretion (BMDCs [4]; BMDCs pre-treated, LPS, R848 or zymosan 18 hr): similarly induced; IL-1β production (BMDCs [4]; BMDCs, stimulation with R848 or zymosan): enhanced; NO production (BMDCs [4]; BMDCs, zymosan stimulation, relative to HG-9-91-01-treated): increased NO production
CCN1CCN(CCOc2ccc3cc2COC/C=C/CN(C(=O)Oc2c(C)cccc2C)c2ccnc(n2)N3)CC1 [I-2]	–	0.0878	0.445	6.58	remaining activity at 1 µM (SIK1): 15.9%; remaining activity at 1 µM (SIK2; 1 μM, DMSO set to 100%, read-out: Activity of protein kinase treated with 1 μM of I-1 (% control (DMSO)) SIK2): 15%
CN1CCN(CCOc2cc(OC3CCOCC3)c3c(Nc4c(Cl)ccc5c4OCO5)ncnc3c2)CC1 [saracatinib, reference compound]	reduced viability	–	–	–	–
Cc1c[nH]c(-c2cnc(NCCNc3ccc(C#N)cn3)nc2-c2ccc(Cl)cc2Cl)n1 [CHIR-99021, reference compound]	reduced viability	–	–	–	maximum effect on IL-10 production ([1]; zymosan-stimulated BMDCs, hit criterion): > 30 % of the PGE2 response
COc1cc(N2CCC(N3CCN(C)CC3)CC2)ccc1Nc1ncc(Cl)c(Nc2ccccc2S(=O)(=O)C(C)C)n1 [TAE-684, reference compound]	reduced viability	–	–	–	–

Reference: patent US10265321B2, “Uses of salt-inducible kinase (SIK) inhibitors” (Dana-Farber Cancer Institute, Inc., priority 2014, dated 2019)
